Measured values published in patent US11179363B2, “Non-steroidal selective glucocorticoid receptor agonistic modulators (SEGRAMs) and uses thereof” (ASSOCIATION POUR LA RECHERCHE À L'IGBMC (ARI), priority 2017, dated 2021).

Columns and labels:
corneal epithelial cells = settings: in vitro; cited from earlier work
[1] = biological target: T1, glucocorticoid receptor (GR) (Mus musculus, UniProt P06537); test: In vivo transcriptional analysis (q-RT-PCR) of the three GR functions in mouse ears; design: species or system Balb/C mice; settings: topical 18 hours, 1 nmole/cm^2
T1 construct: RNA transcripts were then extracted from mouse ears; from tissue; host or cells: ear skin of Balb/C mice (in vivo topical treatment)
T1 sequence (P06537 1-792): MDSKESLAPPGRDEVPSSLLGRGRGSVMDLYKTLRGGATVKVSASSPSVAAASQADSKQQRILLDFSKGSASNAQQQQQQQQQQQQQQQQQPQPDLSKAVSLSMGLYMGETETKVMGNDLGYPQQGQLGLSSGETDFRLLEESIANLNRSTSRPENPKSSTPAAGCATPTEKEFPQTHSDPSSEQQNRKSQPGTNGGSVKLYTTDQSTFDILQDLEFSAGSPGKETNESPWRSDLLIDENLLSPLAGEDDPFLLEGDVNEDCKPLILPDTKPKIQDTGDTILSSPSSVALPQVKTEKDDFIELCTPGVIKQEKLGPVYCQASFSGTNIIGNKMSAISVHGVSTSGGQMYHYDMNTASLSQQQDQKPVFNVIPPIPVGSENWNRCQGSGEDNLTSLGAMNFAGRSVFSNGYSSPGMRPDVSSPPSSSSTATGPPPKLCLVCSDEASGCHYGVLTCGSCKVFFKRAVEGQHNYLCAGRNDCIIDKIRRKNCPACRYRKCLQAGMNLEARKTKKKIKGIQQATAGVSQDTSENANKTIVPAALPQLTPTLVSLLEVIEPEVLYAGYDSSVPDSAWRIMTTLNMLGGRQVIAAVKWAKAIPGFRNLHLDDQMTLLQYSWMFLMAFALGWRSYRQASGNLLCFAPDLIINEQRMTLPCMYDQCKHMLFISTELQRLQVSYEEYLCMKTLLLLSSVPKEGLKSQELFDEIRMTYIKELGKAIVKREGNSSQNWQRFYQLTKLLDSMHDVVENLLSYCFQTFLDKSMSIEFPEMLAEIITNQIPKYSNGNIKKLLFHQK
Method: RNA transcripts were then extracted from mouse ears and the transcripts of 4 genes were analyzed by q-RT-PCR: • (i) the directly GR-transactivated gene of the mTOR inhibitor REDD1, • (ii) the GR-directly transrepressed gene of keratin 5 (K5) and • (iii) the GR-indirectly “tethered” transrepressed genes of interleukin-1β (IL-1β) and interleukin-6 (IL-6), both being activated in presence of 12-O-tetradecanoylphorbol-13-acetate (TPA). Results

[2] = tested on: experimental models of dry eye and postoperative inflammation; settings: in vivo, cited from earlier work

## Cc1ccc2c(NC[C@](O)(CC(C)(C)c3cc(F)cc4c3OCC4)C(F)(F)F)cccc2n1 [Mapracorat]
Corneal epithelial cells
  anti-inflammatory action in corneal epithelial cells challenged with osmotic stress: act as an anti-inflammatory agent
[1]
  GR functions induced (direct transactivation, direct transrepression, indirect tethered transrepression): induces all three GR functions
[2]; vs dexamethasone
  side effects in intraocular pressure and body weight: reduced side effects
[2]
  anti-inflammatory activity vs dexamethasone: comparable
